According to the supplement of paper PMC10627819:

Key:
B. subtilis 168 [1] = assay: fitness (endpoint OD595 vs no drug) (fraction); higher = more growth
In short: (§1)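 In 384-well plates at 37 °C, cultures began at OD595 0.01 in 30 µl, with 55 µl used for S. pneumoniae. OD595 readings every 30 min for 14 h were corrected by the first reading. Fitness divides the stationary-phase transition optical density by the robust mean of no-drug control wells. The result is capped at 1.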

S. aureus DSM 20231 [2] = assay: as above
In short: as §1

S. aureus Newman [3] = assay: as above
In short: as §1

B. subtilis 168 [4] = assay: Bliss interaction score (quartile over a dose matrix) (fitness difference); higher = more antagonism (negative = synergy)
In short: (§2)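 Growth in each well was taken as OD595 at entry into stationary phase. Dividing by the plate's robust no-drug mean and capping at 1 gave fitness, and single-drug fitness was inferred from the combination data. The Bliss score, observed minus product-expected fitness, is summarised by quartiles over technical, biological and donor/recipient replicates.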

S. aureus DSM 20231 [5] = assay: as above
In short: as §2

S. aureus Newman [6] = assay: as above
In short: as §2

S. pneumoniae D39V [7] = assay: as above
In short: as §2

S. pneumoniae D39V [8] = assay: fitness (endpoint OD595 vs no drug) (fraction); higher = more growth
In short: as §1
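Throughout, for Bliss interaction score (quartile over a dose matrix): first quartile when negative (synergy) and third quartile when positive (antagonism).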

CC[C@H]1OC(=O)[C@H](C)[C@@H](O[C@H]2C[C@@](C)(OC)[C@@H](O)[C@H](C)O2)[C@H](C)[C@@H](O[C@@H]2O[C@H](C)C[C@H](N(C)C)[C@H]2O)[C@](C)(O)C[C@@H](C)CN(C)[C@H](C)[C@@H](O)[C@]1(C)O [Azithromycin] + CCN(CC)CCOC(=O)c1ccc(N)cc1 [Procaine]
fitness
Details	partner 85.5 µg/mL	partner 171 µg/mL	partner 342 µg/mL
B. subtilis 168 [1], first compound 0.25 µg/mL	0.867	0.9	0.861
B. subtilis 168 [1], first compound 0.5 µg/mL	0.777	0.778	0.787
S. aureus DSM 20231 [2], first compound 0.125 µg/mL	–	0.905	0.912
S. aureus DSM 20231 [2], first compound 0.5 µg/mL	0.441	–	0.426
S. aureus Newman [3], first compound 0.125 µg/mL	0.871	0.864	0.843
S. aureus Newman [3], first compound 0.25 µg/mL	0.803	0.877	0.779
S. aureus Newman [3], first compound 0.5 µg/mL	0.408	–	0.401

Details	Bliss interaction score
B. subtilis 168 [4]	-0.0562
S. aureus DSM 20231 [5]	-0.0967
S. aureus Newman [6]	-0.0635
S. pneumoniae D39V [7]	0.0533

CC[C@H]1OC(=O)[C@H](C)[C@@H](O[C@H]2C[C@@](C)(OC)[C@@H](O)[C@H](C)O2)[C@H](C)[C@@H](O[C@@H]2O[C@H](C)C[C@H](N(C)C)[C@H]2O)[C@](C)(O)C[C@@H](C)CN(C)[C@H](C)[C@@H](O)[C@]1(C)O [Azithromycin] + C[n+]1ccc(-c2cc[n+](C)cc2)cc1 [Paraquat]
fitness
Details	partner 1.25 µg/mL	partner 2.5 µg/mL	partner 5 µg/mL
B. subtilis 168 [1], first compound 0.25 µg/mL	0.947	0.919	0.884
B. subtilis 168 [1], first compound 0.5 µg/mL	0.906	0.866	0.759
S. aureus DSM 20231 [2], first compound 0.125 µg/mL	0.827	0.846	0.794
S. aureus DSM 20231 [2], first compound 0.25 µg/mL	0.814	0.75	0.823
S. aureus DSM 20231 [2], first compound 0.5 µg/mL	0.473	0.51	0.514
S. aureus Newman [3], first compound 0.125 µg/mL	0.924	0.904	0.853
S. aureus Newman [3], first compound 0.25 µg/mL	0.882	0.845	0.789
S. aureus Newman [3], first compound 0.5 µg/mL	0.55	0.575	0.496

Details	Bliss interaction score
B. subtilis 168 [4]	0.0865
S. aureus DSM 20231 [5]	-0.095
S. aureus Newman [6]	-0.0372
S. pneumoniae D39V [7]	0.0486

CC[C@H]1OC(=O)[C@H](C)[C@@H](O[C@H]2C[C@@](C)(OC)[C@@H](O)[C@H](C)O2)[C@H](C)[C@@H](O[C@@H]2O[C@H](C)C[C@H](N(C)C)[C@H]2O)[C@](C)(O)C[C@@H](C)CN(C)[C@H](C)[C@@H](O)[C@]1(C)O [Azithromycin] + COc1ccc(C[C@H](N)C(=O)N[C@H]2[C@@H](O)[C@H](n3cnc4c(N(C)C)ncnc43)O[C@@H]2CO)cc1 [Puromycin]
fitness
Details	partner 0.39 µg/mL	partner 0.78 µg/mL	partner 1.56 µg/mL
B. subtilis 168 [1], first compound 0.25 µg/mL	0.888	0.913	0.95
B. subtilis 168 [1], first compound 0.5 µg/mL	0.828	0.815	0.82
S. aureus DSM 20231 [2], first compound 0.125 µg/mL	0.849	0.863	0.923
S. aureus DSM 20231 [2], first compound 0.25 µg/mL	0.881	0.936	0.891
S. aureus Newman [3], first compound 0.125 µg/mL	0.915	0.905	0.945
S. aureus Newman [3], first compound 0.25 µg/mL	0.884	0.836	0.889
S. aureus Newman [3], first compound 0.5 µg/mL	0.559	–	0.524

fitness, S. aureus DSM 20231 [2], one replicate
Details	first compound 0.125 µg/mL	first compound 0.25 µg/mL	first compound 0.5 µg/mL
partner 3.12 µg/mL	≥ 1	0.915	0.293
partner 6.24 µg/mL	0.615	0.237	0.0525

Details	Bliss interaction score
B. subtilis 168 [4]	-0.0345
S. aureus DSM 20231 [5]	-0.0839
S. aureus Newman [6]	-0.0828
S. pneumoniae D39V [7]	-0.0719

CC[C@H]1OC(=O)[C@H](C)[C@@H](O[C@H]2C[C@@](C)(OC)[C@@H](O)[C@H](C)O2)[C@H](C)[C@@H](O[C@@H]2O[C@H](C)C[C@H](N(C)C)[C@H]2O)[C@](C)(O)C[C@@H](C)CN(C)[C@H](C)[C@@H](O)[C@]1(C)O [Azithromycin] + Cc1cc(NS(=O)(=O)c2ccc(N)cc2)no1 [Sulfamethoxazol]
fitness
Details	partner 1 µg/mL	partner 2 µg/mL	partner 4 µg/mL
B. subtilis 168 [1], first compound 0.25 µg/mL	0.901	0.89	0.895
B. subtilis 168 [1], first compound 0.5 µg/mL	0.871	0.834	0.849
S. aureus DSM 20231 [2], first compound 0.125 µg/mL	0.911	0.85	0.913
S. aureus DSM 20231 [2], first compound 0.25 µg/mL	0.85	0.839	0.869
S. aureus DSM 20231 [2], first compound 0.5 µg/mL	–	0.545	0.516
S. aureus Newman [3], first compound 0.125 µg/mL	0.849	0.88	0.86
S. aureus Newman [3], first compound 0.25 µg/mL	0.85	0.869	0.837

one replicate
Details	fitness
B. subtilis 168 [1], first compound 0.5 µg/mL, partner 0.5 µg/mL	0.899
B. subtilis 168 [1], first compound 1 µg/mL, partner 0.5 µg/mL	0.788
B. subtilis 168 [1], first compound 2 µg/mL, partner 0.5 µg/mL	0.029
B. subtilis 168 [1], first compound 2 µg/mL, partner 1 µg/mL	0.105
B. subtilis 168 [1], first compound 2 µg/mL, partner 2 µg/mL	0.126
S. aureus Newman [3], first compound 0.125 µg/mL, partner 8 µg/mL	0.895
S. aureus Newman [3], first compound 0.25 µg/mL, partner 8 µg/mL	0.873
S. aureus Newman [3], first compound 0.5 µg/mL, partner 8 µg/mL	0.893

Details	Bliss interaction score
B. subtilis 168 [4]	0.0534
S. aureus DSM 20231 [5]	-0.0683
S. aureus Newman [6]	-0.0991
S. pneumoniae D39V [7]	0.071

CC[C@H]1OC(=O)[C@H](C)[C@@H](O[C@H]2C[C@@](C)(OC)[C@@H](O)[C@H](C)O2)[C@H](C)[C@@H](O[C@@H]2O[C@H](C)C[C@H](N(C)C)[C@H]2O)[C@](C)(O)C[C@@H](C)CN(C)[C@H](C)[C@@H](O)[C@]1(C)O [Azithromycin] + CCC[C@@H]1C[C@@H](C(=O)N[C@@H]([C@H]2O[C@H](SC)[C@H](O)[C@@H](O)[C@H]2O)[C@H](C)Cl)N(C)C1 [Clindamycin]
fitness
Details	first compound 0.125 µg/mL	first compound 0.25 µg/mL	first compound 0.5 µg/mL	first compound 1 µg/mL
B. subtilis 168 [1], partner 0.0625 µg/mL	–	0.632	0.554	–
B. subtilis 168 [1], partner 0.125 µg/mL	–	0.388	0.379	–
B. subtilis 168 [1], partner 0.25 µg/mL	–	0.367	0.299	0.0793
S. aureus DSM 20231 [2], partner 0.0312 µg/mL	–	–	0.142	–
S. aureus DSM 20231 [2], partner 0.0625 µg/mL	–	–	0.0702	–
S. aureus DSM 20231 [2], partner 0.125 µg/mL	0.0728	0.0466	0.0384	–
S. aureus Newman [3], partner 0.0312 µg/mL	0.693	–	0.481	–
S. aureus Newman [3], partner 0.125 µg/mL	–	0.113	0.0923	–

fitness, B. subtilis 168 [1], one replicate
Details	first compound 0.5 µg/mL	first compound 1 µg/mL	first compound 2 µg/mL
partner 0.0039 µg/mL	0.945	0.922	0.516
partner 0.0078 µg/mL	0.84	0.776	0.186
partner 0.0156 µg/mL	0.776	0.715	0.23

Details	Bliss interaction score
B. subtilis 168 [4]	0.109
S. aureus DSM 20231 [5]	-0.0395
S. aureus Newman [6]	-0.0621
S. pneumoniae D39V [7]	0.0737

Cc1cc(NS(=O)(=O)c2ccc(N)cc2)no1 [Sulfamethoxazol] + CN[C@H](CC(C)C)C(=O)N[C@H]1C(=O)N[C@@H](CC(N)=O)C(=O)N[C@H]2C(=O)N[C@H]3C(=O)N[C@H](C(=O)N[C@H](C(=O)O)c4cc(O)cc(O)c4-c4cc3ccc4O)[C@H](O)c3ccc(c(Cl)c3)Oc3cc2cc(c3O[C@@H]2O[C@H](CO)[C@@H](O)[C@H](O)[C@H]2O[C@H]2C[C@](C)(N)[C@H](O)[C@H](C)O2)Oc2ccc(cc2Cl)[C@H]1O [Vancomycin]
fitness
Details	first compound 1 µg/mL	first compound 2 µg/mL	first compound 4 µg/mL
S. aureus DSM 20231 [2], partner 0.1875 µg/mL	0.929	0.932	0.94
S. aureus DSM 20231 [2], partner 0.375 µg/mL	≥ 1	≥ 1	0.962
S. aureus DSM 20231 [2], partner 0.75 µg/mL	1	0.983	0.998
S. aureus Newman [3], partner 0.1875 µg/mL	0.991	0.988	≥ 1
S. aureus Newman [3], partner 0.375 µg/mL	0.993	0.968	≥ 1
S. aureus Newman [3], partner 0.75 µg/mL	0.977	0.953	≥ 1
S. pneumoniae D39V [8], partner 0.03125 µg/mL	0.964	0.961	0.97
S. pneumoniae D39V [8], partner 0.0625 µg/mL	0.909	0.899	0.961
S. pneumoniae D39V [8], partner 0.125 µg/mL	0.925	0.94	0.952

one replicate
Details	fitness
S. aureus Newman [3], first compound 8 µg/mL, partner 0.1875 µg/mL	0.87
S. aureus Newman [3], first compound 8 µg/mL, partner 0.375 µg/mL	0.896
S. aureus Newman [3], first compound 8 µg/mL, partner 0.75 µg/mL	0.915
S. pneumoniae D39V [8], first compound 1 µg/mL, partner 0.25 µg/mL	0.262
S. pneumoniae D39V [8], first compound 1 µg/mL, partner 0.5 µg/mL	0.0171
S. pneumoniae D39V [8], first compound 2 µg/mL, partner 0.25 µg/mL	0.258
S. pneumoniae D39V [8], first compound 2 µg/mL, partner 0.5 µg/mL	0.0591
S. pneumoniae D39V [8], first compound 4 µg/mL, partner 0.25 µg/mL	0.772
S. pneumoniae D39V [8], first compound 4 µg/mL, partner 0.5 µg/mL	0.496

Details	Bliss interaction score
B. subtilis 168 [4]	-0.0423
S. aureus DSM 20231 [5]	0.0457
S. aureus Newman [6]	0.0422
S. pneumoniae D39V [7]	0.0444

CN(N=O)C(=O)N[C@@H](C=O)[C@@H](O)[C@H](O)[C@H](O)CO [Streptozotocin] + Cn1nnc(-c2ccc(-c3ccc(N4C[C@H](CO)OC4=O)cc3F)cn2)n1 [Tedizolid]
fitness
Details	partner 0.03125 µg/mL	partner 0.0625 µg/mL	partner 0.125 µg/mL	partner 0.25 µg/mL
S. aureus DSM 20231 [2], first compound 0.15 µg/mL	–	0.799	0.553	0.207
S. aureus DSM 20231 [2], first compound 0.3 µg/mL	–	0.833	0.58	0.195
S. aureus DSM 20231 [2], first compound 0.6 µg/mL	–	0.701	0.5	0.152
S. aureus Newman [3], first compound 0.15 µg/mL	–	0.822	0.737	0.304
S. aureus Newman [3], first compound 0.3 µg/mL	–	0.638	–	0.297
S. aureus Newman [3], first compound 0.6 µg/mL	–	0.471	0.409	0.151
S. pneumoniae D39V [8], first compound 1.2 µg/mL	0.921	0.923	0.809	–
S. pneumoniae D39V [8], first compound 2.4 µg/mL	0.921	0.908	0.828	–
S. pneumoniae D39V [8], first compound 4.8 µg/mL	0.932	0.868	0.87	–

fitness, S. pneumoniae D39V [8], one replicate
Details	first compound 1.2 µg/mL	first compound 2.4 µg/mL	first compound 4.8 µg/mL
partner 0.25 µg/mL	0.598	0.653	0.791
partner 0.5 µg/mL	0.426	0.464	0.547

Details	Bliss interaction score
B. subtilis 168 [4]	-0.0702
S. aureus DSM 20231 [5]	0.0552
S. aureus Newman [6]	-0.0487
S. pneumoniae D39V [7]	-0.075
